Data published in patent US20240025862A1, “SUBSTITUTED N-PHENYLURACILS AND SALTS THEREOF, AND USE THEREOF AS HERBICIDAL ACTIVE SUBSTANCES” (Bayer Aktiengesellschaft, priority 2020, published 2024).

Tests used:
Format in all cases: in vivo
[1] = tested on: Zea mays (ZEAMX); assay: Pre-emergence crop plant compatibility, greenhouse pot test; conditions: 20 g/ha
From the text: Seeds of monocotyledonous and dicotyledonous weed plants and crop plants were placed in plastic or organic planting pots and covered with soil. The compounds of the invention, formulated in the form of wettable powders (WP) or as emulsion concentrates (EC), were then applied to the surface of the covering soil as aqueous suspension or emulsion with addition of 0.5% additive at a water application rate equivalent to 600 l/ha (converted). After the treatment, the pots were placed in a greenhouse and kept under good growth conditions for the test plants. After about 3 weeks, the effect of the preparations was scored visually in comparison with untreated controls as percentages. For example, 100% activity=the plants have died, 0% activity=like control plants.
The observed effects on selected crop plants are reported here in comparison to the untreated controls (values in %).

[2] = tested on: Viola tricolor (VIOTR); assay: Post-emergence herbicidal action, greenhouse pot test; conditions: Viola tricolor, 504 h, read-out: Post-emergence action against VIOTR
Summary of the method: (§1)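 Activity was scored by eye about 3 weeks after treatment against untreated plants, where 100% means dead plants and 0% means no difference. Plants at the one-leaf stage received a foliar spray of WP or EC formulations in water plus 0.5% additive (600 l/ha, up to 20 g/ha). Plants were grown in sandy loam pots in a greenhouse for 2–3 weeks before spraying.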

[3] = tested on: Lolium rigidum (LOLRI); assay: as above; conditions: Lolium rigidum, 504 h, dosage 20 g/ha, read-out: Post-emergence action against LOLRI in %
Summary of the method: as §1

[4] = tested on: Polygonum convolvulus (POLCO); assay: as above; conditions: Fallopia convolvulus, 504 h, read-out: Post-emergence action against POLCO in %
Summary of the method: as §1

[5] = tested on: Abutilon theophrasti (ABUTH); assay: as above; conditions: Abutilon theophrasti, 504 h, rated visually after about 3 weeks vs untreated controls, 100% = plants have died
Summary of the method: as §1

[6] = tested on: Avena fatua (AVEFA); assay: as above; conditions: Avena fatua, 504 h, 20 g/ha, rated visually after about 3 weeks vs untreated controls, 100% = plants have died, read-out: Post-emergence action at 20 g/ha against AVEFA in %
Summary of the method: as §1

[7] = tested on: Pharbitis purpurea (PHBPU); assay: as above; conditions: Ipomoea purpurea, 504 h, read-out: Post-emergence action against PHBPU in %
Summary of the method: as §1

[8] = tested on: Veronica persica (VERPE); assay: as above; conditions: Veronica persica, 504 h, read-out: Post-emergence action against VERPE
Summary of the method: as §1

[9] = tested on: Amaranthus retroflexus (AMARE); assay: as above; conditions: Amaranthus retroflexus, 504 h, rated visually after about 3 weeks vs untreated controls, 100% = plants have died
Summary of the method: as §1

[10] = tested on: Echinochloa crus-galli (ECHCG); assay: Post-emergence herbicidal action, greenhouse pot test (also comparative test C)
Summary of the method: (§2)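 Green parts of one-leaf-stage plants are sprayed at 600 l/ha with formulated compound plus 0.5% additive, then kept under optimum greenhouse conditions for about 3 weeks. Damage is scored visually, where 100% means dead plants and 0% means no difference from controls.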

[11] = tested on: Setaria viridis (SETVI); assay: as above
Summary of the method: as §2

[12] = tested on: Matricaria inodora (MATIN); assay: as above
Summary of the method: as §2

[13] = tested on: Alopecurus myosuroides (ALOMY); assay: as above
Summary of the method: as §2

[14] = tested on: Oryza sativa (ORYSA); assay: Post-emergence crop plant compatibility, greenhouse pot test (also comparative test C)
Summary of the method: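 Visual damage versus untreated plants (0% = like control, 100% = plants died) was scored about 3 weeks after a post-emergence spray in greenhouse pots. Treatment: one-leaf stage, WP or EC in water at 600 l/ha with 0.5% additive; a/b/c mark different dosages on the same crop.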

[15] = application rate of 5 g or less per hectare, tables C1 to C4
[16] = comparative test C, application rate 1.25 g/ha

What does the source list for `COCCOC(=O)COc1ccccc1Oc1cc(-n2c(=O)cc(C(F)(F)F)n(C)c2=O)c(F)cc1Cl` [I.7-1, 2-Methoxyethyl (2-{2-chloro-4-fluoro-5-[3-methyl-2,6-dioxo-4-(trifluoromethyl)-3,6-dihydropyrimidin-1(2H)-yl]phenoxy}phenoxy)acetate]?
Pre-emergence action against ZEAMX in % [1]: 0%; pest or weed control at 1.25 g/ha ([2]; 1.25 g/ha): 100%; pest or weed control at 5 g/ha ([2]; 5 g/ha): 100%; pest or weed control at 20 g/ha ([2]; 20 g/ha): 100%; pest or weed control at 20 g/ha [3]: 80%; pest or weed control at 5 g/ha ([4]; dosage 5 g/ha): 80%; pest or weed control at 20 g/ha ([4]; dosage 20 g/ha): 100%; pest or weed control at 5 g/ha ([5]; 5 g/ha, read-out: Post-emergence action at 5 g/ha against ABUTH in %): 100%; pest or weed control at 20 g/ha ([5]; 20 g/ha, read-out: Post-emergence action at 20 g/ha against ABUTH in %): 100%; pest or weed control at 20 g/ha [6]: 80%; pest or weed control at 1.25 g/ha ([7]; dosage 1.25 g/ha): 100%; pest or weed control at 5 g/ha ([7]; dosage 5 g/ha): 100%; pest or weed control at 20 g/ha ([7]; dosage 20 g/ha): 100%; pest or weed control at 1.25 g/ha ([8]; 1.25 g/ha): 100%; pest or weed control at 5 g/ha ([8]; 5 g/ha): 100%; pest or weed control at 20 g/ha ([8]; 20 g/ha): 100%; pest or weed control at 1.25 g/ha ([9]; 1.25 g/ha, read-out: Post-emergence action at 1.25 g/ha against AMARE in %): 100%; pest or weed control at 5 g/ha ([9]; 5 g/ha, read-out: Post-emergence action at 5 g/ha against AMARE in %): 100%; pest or weed control at 20 g/ha ([9]; 20 g/ha, read-out: Post-emergence action at 20 g/ha against AMARE in %): 100%; Post-emergence action at 1.25 g/ha against ECHCG in % ([10]; 1.25 g/ha, rated visually after about 3 weeks vs untreated controls, 100% = plants have died): 90%; pest or weed control at 5 g/ha ([10]; Echinochloa crus-galli, 504 h, dosage 5 g/ha, read-out: Post-emergence action against ECHCG in %): 100%; pest or weed control at 20 g/ha ([10]; Echinochloa crus-galli, 504 h, dosage 20 g/ha, read-out: Post-emergence action against ECHCG in %): 90%; herbicidal efficacy against ECHCG by comparison with literature compound a-17 / 3-14 [10, 15]: distinct improvement in herbicidal efficacy; ECHCG (efficacy in %) [10, 16]: 90%; pest or weed control at 20 g/ha ([11]; Setaria viridis, 504 h, 20 g/ha, read-out: Post-emergence action against SETVI): 100%; pest or weed control at 1.25 g/ha ([11]; Setaria viridis, 504 h, dosage 1.25 g/ha, read-out: Post-emergence action against SETVI in %): 100%; pest or weed control at 5 g/ha ([11]; Setaria viridis, 504 h, dosage 5 g/ha, read-out: Post-emergence action against SETVI in %): 100%; herbicidal efficacy against SETVI by comparison with literature compound a-17 / 3-14 [11, 15]: distinct improvement in herbicidal efficacy; SETVI (efficacy in %) [11, 16]: 100%; pest or weed control at 1.25 g/ha ([12]; Tripleurospermum inodorum, 504 h, dosage 1.25 g/ha, read-out: Post-emergence action against MATIN in %): 100%; pest or weed control at 5 g/ha ([12]; Tripleurospermum inodorum, 504 h, dosage 5 g/ha, read-out: Post-emergence action against MATIN in %): 100%; pest or weed control at 20 g/ha ([12]; Tripleurospermum inodorum, 504 h, dosage 20 g/ha, read-out: Post-emergence action against MATIN in %): 100%; herbicidal efficacy against MATIN by comparison with literature compound a-17 / 3-14 [12, 15]: distinct improvement in herbicidal efficacy; MATIN (efficacy in %) [12, 16]: 100%; pest or weed control at 5 g/ha ([13]; Alopecurus myosuroides, 504 h, 5 g/ha, rated visually after about 3 weeks vs untreated controls, 100% = plants have died, read-out: Post-emergence action at 5 g/ha against ALOMY in %): 80%; pest or weed control at 20 g/ha ([13]; Alopecurus myosuroides, 504 h, 20 g/ha, rated visually after about 3 weeks vs untreated controls, 100% = plants have died, read-out: Post-emergence action at 20 g/ha against ALOMY in %): 100%; herbicidal efficacy against ALOMY by comparison with literature compound a-17 / 3-14 [13, 15]: distinct improvement in herbicidal efficacy; compatibility with respect to the crop plant Oryza sativa (ORYSA) by comparison with literature compound a-17 / 3-14 ([14]; application rate of 1.25 g per hectare, table C5): distinct improvement in compatibility; ORYSA (efficacy in %) ([14]; comparative test C, application rate 1.25 g/ha, crop plant compatibility): 0%
